The text below walks through data of ChEMBL document CHEMBL4808184, “Discovery and Optimization of DNA Gyrase and Topoisomerase IV Inhibitors with Potent Activity against Fluoroquinolone-Resistant Gram-Positive Bacteria” (J Med Chem, 2021).

By EC50 is commonly meant the concentration at which the effect is half-maximal. As a reminder, the logD is the decadic logarithm of the distribution of all forms, ionised or not, between an organic phase and buffer at a given pH. Higher therefore signals a more lipophilic compound. What is called pKa is the pH at which an ionisable group is half protonated. A higher pKa goes with a weaker acid or stronger base. Broadly, the fraction unbound is the share of the substance not bound to proteins or other matrix. Lower therefore signals little free substance. The Vd is a proportionality between amount in the body and measured concentration, not a real space. In general, half-life refers to how long it takes for the measured level to halve. A word on the AUC(0-inf): it is total exposure, with the tail of the curve extrapolated. As a reminder, the Cmax is the maximum level reached in the sampled fluid or tissue. The term Tmax denotes the time from dosing to the highest level. By clearance is commonly meant the volume of plasma or blood freed of the substance per unit of time. Low values mean a low capacity for elimination, high ones a high capacity for elimination. A word on the bioavailability: it is the share of a dose that reaches the circulation, judged against a reference dose that is usually intravenous. A lower bioavailability goes with poor availability. For orientation: solubility means the concentration that dissolves in the medium under given conditions. What is called Papp A→B is how fast a substance crosses the layer from the apical side. Low values mean slow passage, high ones fast passage. A word on the efflux ratio: it is a quotient of directional permeabilities that is used to spot active efflux. A word on the inhibition: it is the relative decrease from the control value, in per cent.

One data set concerns HepG2. The experiment in a line: cells. The conditions noted are these: Homo sapiens, HepG2, 72 h.
A further data set has as its system K562. Kind of data set: cells. The conditions noted are these: Homo sapiens, K562, 72 h.
Data set [1] in a line: physchem. The conditions noted are these: octanol/water, pH 7.4.
Data set [2] is described as follows: physchem.
Data set [3] concerns Staphylococcus aureus. Kind of data set: microbe, parasite or virus in culture. The conditions noted are these: ATCC 49951.
In data set [4] the test system is Staphylococcus aureus. Kind of data set: microbe, parasite or virus in culture. The conditions noted are these: ATCC 49951. The source holds these as a separate data set.
The test system of data set [5] is Staphylococcus aureus. The experiment in a line: microbe, parasite or virus in culture. The conditions noted are these: ATCC 49951. This is another data set of the same source.
In a further data set the test system is Enterococcus faecalis. Kind of data set: microbe, parasite or virus in culture. The conditions noted are these: ATCC 29212.
Another data set concerns Streptococcus pneumoniae. Kind of data set: microbe, parasite or virus in culture. The conditions noted are these: ATCC 49619.
The nature of data set [6]: in vitro. The conditions noted are these: CD1, mouse, plasma.
Data set [7] can be described thus: in vitro. The conditions noted are these: Sprague-Dawley, rat, plasma.
Data set [8] is described as follows: in vitro. The conditions noted are these: human, plasma.
A short description of data set [9]: in vivo. The conditions noted are these: rat, 5 mg/kg.
Data set [10] is described as follows: in vivo. The conditions noted are these: rat, iv.
The nature of data set [11]: in vivo. The conditions noted are these: rat, po, 5 mg/kg.
Data set [12] in a line: in vivo. The conditions noted are these: rat, po, 5 mg/kg. The source holds these as a separate data set.
Data set [13] can be described thus: in vivo. The conditions noted are these: rat, po, 5 mg/kg. This is another data set of the same source.
Data set [14] in a line: in vivo. The conditions noted are these: rat, 5 mg/kg. The source holds these as a separate data set.
The nature of data set [15]: in vivo. The conditions noted are these: rat, po, 5 mg/kg. This is another data set of the same source.
Data set [16] is described as follows: physchem. The conditions noted are these: buffer, pH 7.
A short description of data set [17]: in vitro. The conditions noted are these: human, Caco-2.
Data set [18] in a line: in vitro. The conditions noted are these: human, Caco-2. This is another data set of the same source.
A further data set addresses hERG (KCNH2) (Homo sapiens, UniProt Q12809). Kind of data set: in vitro. The conditions noted are these: CHO-K1 cells expressing human ERG.
Data set [19] can be described thus: in vivo. The conditions noted are these: mouse, 5 mg/kg.
Data set [20] can be described thus: in vivo. The conditions noted are these: dog, 1 mg/kg.
The nature of data set [21]: in vivo. The conditions noted are these: mouse, iv.
Data set [22] can be described thus: in vivo. The conditions noted are these: dog, iv, 0.125 mg/kg.
Data set [23] in a line: in vivo. The conditions noted are these: mouse, po, 5 mg/kg.
The nature of data set [24]: in vivo. The conditions noted are these: dog, po, 1 mg/kg.
The nature of data set [25]: in vivo. The conditions noted are these: mouse, po, 5 mg/kg. This is another data set of the same source.
Data set [26] can be described thus: in vivo. The conditions noted are these: dog, po, 1 mg/kg. The source holds these as a separate data set.
The nature of data set [27]: in vivo. The conditions noted are these: mouse, po, 5 mg/kg. This is another data set of the same source.
Data set [28] is described as follows: in vivo. The conditions noted are these: dog, po, 1 mg/kg. This is another data set of the same source.
Data set [29] can be described thus: in vivo. The conditions noted are these: mouse, po, 5 mg/kg. This is another data set of the same source.

≈ marks a conversion by molar mass, not a printed value.

hERG (KCNH2), sequence (Q12809 whole entry): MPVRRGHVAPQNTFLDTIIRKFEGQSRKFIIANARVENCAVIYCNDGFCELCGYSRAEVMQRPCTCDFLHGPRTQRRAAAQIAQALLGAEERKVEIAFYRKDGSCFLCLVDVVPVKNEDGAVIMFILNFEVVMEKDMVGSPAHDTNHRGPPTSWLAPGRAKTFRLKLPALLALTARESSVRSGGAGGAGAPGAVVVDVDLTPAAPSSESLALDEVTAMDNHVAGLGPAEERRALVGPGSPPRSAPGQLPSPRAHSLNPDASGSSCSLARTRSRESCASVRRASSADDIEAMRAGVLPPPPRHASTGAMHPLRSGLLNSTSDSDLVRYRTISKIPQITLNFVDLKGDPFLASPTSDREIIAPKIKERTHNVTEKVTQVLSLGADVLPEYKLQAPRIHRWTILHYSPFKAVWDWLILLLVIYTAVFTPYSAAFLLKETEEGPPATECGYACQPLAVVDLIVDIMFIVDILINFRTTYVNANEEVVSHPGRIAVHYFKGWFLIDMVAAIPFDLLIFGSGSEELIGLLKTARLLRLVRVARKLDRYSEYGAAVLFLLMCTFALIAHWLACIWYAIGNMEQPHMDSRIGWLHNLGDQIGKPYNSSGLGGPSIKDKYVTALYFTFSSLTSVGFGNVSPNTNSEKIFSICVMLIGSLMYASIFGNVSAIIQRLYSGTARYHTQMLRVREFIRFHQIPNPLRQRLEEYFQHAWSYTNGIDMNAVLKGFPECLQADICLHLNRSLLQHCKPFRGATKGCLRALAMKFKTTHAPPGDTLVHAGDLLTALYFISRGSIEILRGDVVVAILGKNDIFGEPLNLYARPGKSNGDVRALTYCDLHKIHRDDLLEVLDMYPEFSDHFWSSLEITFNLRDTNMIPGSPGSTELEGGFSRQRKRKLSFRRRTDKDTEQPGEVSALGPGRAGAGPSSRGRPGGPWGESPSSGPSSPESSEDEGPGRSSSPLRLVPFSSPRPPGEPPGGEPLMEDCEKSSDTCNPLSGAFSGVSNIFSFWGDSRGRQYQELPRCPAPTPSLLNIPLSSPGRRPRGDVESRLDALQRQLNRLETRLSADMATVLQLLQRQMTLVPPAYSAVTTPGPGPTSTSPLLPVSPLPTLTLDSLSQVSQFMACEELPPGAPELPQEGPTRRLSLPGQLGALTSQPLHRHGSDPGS

For the compound `Cc1c(N2CC3CC3(N)C2)c(F)cc2c(CN)cc(=O)n(C3CC3)c12` (centres undefined), the results for the EC50 in the data set with HepG2 and in the data set on K562 were 82 µM and 40 µM, respectively. Also, the logD in “physchem [1]” is 1.1. The pKa in “physchem [2]” turned out to be 7.6. Also, in the data set on Staphylococcus aureus [3], the MIC was determined as 0.125 µg/mL (≈ 0.365 µM).
In the data set with HepG2, `Cc1c(N2CC[C@@H]([C@H](C)N)C2)c(F)cc2ccc(=O)n(C3CC3)c12` came in with an EC50 of 93 µM. Further, in the data set “physchem [2]”, the pKa turned out to be 9.6. The MIC in the data set with Staphylococcus aureus [4] was ≤ 0.06 µg/mL; against Staphylococcus aureus [3], 0.06 µg/mL (≈ 0.182 µM); in the data set with Staphylococcus aureus [5], ≤ 0.03 µg/mL; against Enterococcus faecalis, 0.125 µg/mL (≈ 0.379 µM); in the data set on Streptococcus pneumoniae it was ≤ 0.03 µg/mL.
Turning to `Cc1c(N2CC[C@@H]([C@H](C)N)C2)c(F)cc2cc(C(=O)O)c(=O)n(C3CC3)c12`, the EC50 with HepG2 and in the data set on K562 was > 100 µM each time. The compound further gave a pKa in “physchem [2]” of 5.2. For the same compound, the fraction unbound at 4 h, 10 µM in the data set “in vitro [6]” is 0.66; in “in vitro [7]” it was 0.54; in “in vitro [8]”, 0.54. Moreover, the MIC turned out to be 0.125 µg/mL (≈ 0.335 µM) in the data set on Staphylococcus aureus [4]; 2 µg/mL (≈ 5.36 µM) with Staphylococcus aureus [3]; 2 µg/mL (≈ 5.36 µM) against Staphylococcus aureus [5]; 0.25 µg/mL (≈ 0.669 µM) against Enterococcus faecalis; 0.015 µg/mL (≈ 0.0402 µM) with Streptococcus pneumoniae.
For the compound `Cc1c(N2CCC(C3(N)CC3)C2)c(F)cc2cc(C(=O)O)c(=O)n(C3CC3)c12` (centres undefined), the EC50 in the data set with HepG2 and in the data set on K562 was > 100 µM in each case. In “in vivo [9]”, this compound gave a Vd at 24 h of 0.69 L/kg. The half-life at 24 h in “in vivo [10]” was 1.32 h. The AUC(0-inf) at 24 h in “in vivo [11]” was 7.62 µM·h. For the same compound, in the data set “in vivo [12]”, the peak level (Cmax at 24 h) was 2000 nM. Also, in “in vivo [13]”, the Tmax at 24 h was 1 h. Further, the logD in the data set “physchem [1]” is -0.97. In “physchem [2]”, this compound displayed a pKa of 5.2. The fraction unbound at 4 h, 10 µM in “in vitro [6]” was 0.48; in “in vitro [7]”, 0.25; in the data set “in vitro [8]”, 0.22. Also, the MIC amounted to 0.06 µg/mL (≈ 0.156 µM) against Staphylococcus aureus [4] and 1 µg/mL (≈ 2.59 µM) against Staphylococcus aureus [3].
In the case of `C[C@H](N)[C@@H]1CCN(c2c(F)cc3cc(C(=O)O)c(=O)n4c3c2OC[C@@H]4C)C1`, the EC50 with HepG2 and in the data set on K562 was > 100 µM in each case. For the same compound, the clearance at 24 h in “in vivo [14]” worked out at 18.5 mL/min/kg. The compound further gave a Vd at 24 h in the data set “in vivo [9]” of 1.75 L/kg. The compound also had a half-life at 24 h in the data set “in vivo [10]” of 3.02 h. Further, in the data set “in vivo [11]”, the AUC(0-inf) at 24 h is 1.6 µM·h. In “in vivo [12]”, the Cmax at 24 h came to 540 nM. Moreover, the Tmax at 24 h in “in vivo [13]” turned out to be 0.83 h. This compound returned a bioavailability at 24 h in “in vivo [15]” of 66%. Further, in the data set “physchem [1]”, the logD was -1.1. The same compound came in with a pKa in the data set “physchem [2]” of 5. Further, the fraction unbound at 4 h, 10 µM in “in vitro [6]” is 0.94; in “in vitro [7]”, 0.72; in “in vitro [8]” it was 0.8. Moreover, in “physchem [16]”, the concentration in solution (solubility at 24 h) was 675 µg/mL (≈ 1800 µM). Also, the Papp A→B at 2 h, 10 µM in “in vitro [17]” was found to be 2.7 ×10⁻⁶ cm/s. Further, in “in vitro [18]”, the efflux ratio was 1.7. Also, on hERG (KCNH2), 300 µM produced 8.3% inhibition. For the same compound, the MIC is 0.125 µg/mL (≈ 0.333 µM) against Staphylococcus aureus [4]; 2 µg/mL (≈ 5.33 µM) against Staphylococcus aureus [3]; 1 µg/mL (≈ 2.66 µM) against Staphylococcus aureus [5]; 0.25 µg/mL (≈ 0.666 µM) in the data set with Enterococcus faecalis; ≤ 0.03 µg/mL with Streptococcus pneumoniae.
Turning to `C[C@H]1COc2c(N3CC[C@@H](C4(N)CC4)C3)c(F)cc3cc(C(=O)O)c(=O)n1c23`, the EC50 in the data set with HepG2 and with K562 was > 100 µM in each case. Moreover, the clearance at 24 h in “in vivo [14]” stood at 3.26 mL/min/kg. The values for the Vd at 24 h in the data set “in vivo [9]”, in “in vivo [19]” and in “in vivo [20]” were 1.09 L/kg, 1.88 L/kg and 1.91 L/kg, respectively. The half-life at 24 h in “in vivo [10]” is 4.64 h; in “in vivo [21]” it was 3.36 h; in “in vivo [22]” it was 9.95 h. The AUC(0-inf) at 24 h worked out at 8.68 µM·h in “in vivo [11]”, 4.3 µM·h in “in vivo [23]” and 19 µM·h in “in vivo [24]”. Moreover, the results for the Cmax at 24 h in the data set “in vivo [12]”, in “in vivo [25]” and in the data set “in vivo [26]” were 1350 nM, 490 nM and 1350 nM, respectively. In addition, the figures for the Tmax at 24 h in “in vivo [13]”, in the data set “in vivo [27]” and in “in vivo [28]” were 2.7 h, 2 h and 4 h, respectively. For the same compound, the figures for the bioavailability at 24 h in “in vivo [15]” and in the data set “in vivo [29]” were 65% and 92%, respectively. In addition, in “physchem [1]”, the logD is -0.9. The same compound showed a pKa in the data set “physchem [2]” of 4.9. Moreover, the results for the fraction unbound at 4 h, 10 µM in “in vitro [6]”, in “in vitro [7]” and in the data set “in vitro [8]” were 0.87, 0.63 and 0.76, respectively. In “physchem [16]”, this compound came in with a solubility at 24 h of 1270 µg/mL (≈ 3270 µM). The compound further returned an apical-to-basolateral permeability (Papp A→B) at 2 h, 10 µM in the data set “in vitro [17]” of 20 ×10⁻⁶ cm/s. Also, the efflux ratio in the data set “in vitro [18]” worked out at 0.9. This compound had an inhibition at 300 µM against hERG (KCNH2) of 27%. In addition, the MIC with Staphylococcus aureus [4] is 0.25 µg/mL (≈ 0.645 µM); with Staphylococcus aureus [3] it was 2 µg/mL (≈ 5.16 µM); with Staphylococcus aureus [5], 0.5 µg/mL (≈ 1.29 µM); against Enterococcus faecalis it was 0.25 µg/mL (≈ 0.645 µM); against Streptococcus pneumoniae it was 0.06 µg/mL (≈ 0.155 µM).
